# From patent publication US12103919B2, “3-(5-oxy)-1-oxoisoindolin-2-yl)piperidine-2,6-dione derivatives and uses thereof” (NOVARTIS AG, priority 2021, dated 2024)
# Target: T1, SALL4 (Homo sapiens, UniProt Q96SW2+Q9UJQ4)
# T1 construct: expressed in transfected cells; host or cells: GripTite 293 MSR cells (293GT), ThermoFisher Scientific, stably transfected by electroporation, blasticidin-selected clones
# Assay: Quantification of SALL4 protein levels in HiBiT tag fusion protein assay
# Assay type: cell-based
# Protocol: The HiBiT system from Promega was used to develop high-throughput and quantitative assays to measure changes in SALL4 protein levels in response to compounds. The HiBiT tag was derived from a split Nanoluciferase and has the following protein sequence: […] (SEQ ID No: 1). The complementary fragment of Nanoluciferase (known as LgBiT, from Promega), was added to the HiBiT tag to form an active Nanoluciferase enzyme whose activity can be precisely measured. In this way, the levels of a fusion protein with the HiBiT tag can be quantified in cell lysates.
# DNA constructs, based on the Invitrogen pLenti6.2/V5 DEST backbone, were constructed with the HiBiT tag upstream of SALL4 and expressed the fusion protein from a CMV promotor.
# To ensure moderate and consistent expression of the HiBiT-SALL4 fusion protein across all cells in the population, stable cell lines were derived from clones. GripTite 293 MSR cells (293GT) from ThermoFisher Scientific (Catalog number: CRL-R79507), were stably transfected with prepared constructs via electroporation. Following recovery, cells were selected by 10 ug/mL blasticidin in culture media.
# The levels of HiBiT-SALL4 tagged fusion proteins in compound-treated cell lines were measured as follows:
# On day 1, cells were diluted to 1.0×10^6 cells/ml in normal growth medium. 20 μL of cell suspension were plated in each well of a solid white 384-well plate. Plates were incubated overnight in a 37° C. and 5% CO2 humidified tissue culture incubator.
# On day 2, serial dilutions of compounds were made in 384-well plates. Compound plates were set up with DMSO in columns 1, 2, 23, 24, and 10-point compound dilution series in column 3-12 and column 13-22. 10 mM stock solution of compound were placed into column 3 or 13 and a 1:5 serial dilution was carried out until there was a 10-point dilution series per compound. 100 nL of diluted compounds were transferred into the plated cells by Echo® (Labcyte) acoustic transfer. The highest concentration of compound was 50 μM. Plates were incubated overnight (18 hours) in a 37° C. and 5% CO2 humidified tissue culture incubator.
# On day 3, plates were removed from the incubator and allowed to equilibrate at room temperature for 60 minutes. HiBiT substrate (Nano-Glo® HiBit Lytic Detection System, Promega Catalogue number: N3050) was added as described by the manufacturers protocols. Plates were incubated at room temperature for 30 minutes and luminescence was read using an EnVision® reader (PerkinElmer®). Data was analyzed and visualized using the Spotfire® software package.
# SALL4 Amax reflects the DMSO-normalized, curve-fitted percentage of SALL4-HiBiT remaining at 50 uM. It was calculated by normalizing DMSO controls to 100%, parametric curve fitting of the dose response data (10-point, 5-fold), followed by calculation of response at 50 uM using the fitted equation.
# This assay produced a range of SALL4 AC50 and Amax values over several repeat runs due to normal variations in the assay. For a comparison to the compounds described in PCT/IB2020/062070, the arithmatic mean values are reported over the number of repeats specified. […] The compounds of the present disclosure are therefore expected to have improved toxicological properties (Matyskiela, M. E., Couto, S., Zheng, X. et al. SALL4 mediates teratogenicity as a thalidomide-dependent cereblon substrate. Nat Chem Biol 14, 981-987 (2018); Donovan, K. A. et al. Thalidomide promotes degradation of SALL4, a transcription factor Implicated in Duane Radial Ray syndrome. eLife 2018; 7:e38430).
# T1 sequence (Q9UJQ4 whole entry): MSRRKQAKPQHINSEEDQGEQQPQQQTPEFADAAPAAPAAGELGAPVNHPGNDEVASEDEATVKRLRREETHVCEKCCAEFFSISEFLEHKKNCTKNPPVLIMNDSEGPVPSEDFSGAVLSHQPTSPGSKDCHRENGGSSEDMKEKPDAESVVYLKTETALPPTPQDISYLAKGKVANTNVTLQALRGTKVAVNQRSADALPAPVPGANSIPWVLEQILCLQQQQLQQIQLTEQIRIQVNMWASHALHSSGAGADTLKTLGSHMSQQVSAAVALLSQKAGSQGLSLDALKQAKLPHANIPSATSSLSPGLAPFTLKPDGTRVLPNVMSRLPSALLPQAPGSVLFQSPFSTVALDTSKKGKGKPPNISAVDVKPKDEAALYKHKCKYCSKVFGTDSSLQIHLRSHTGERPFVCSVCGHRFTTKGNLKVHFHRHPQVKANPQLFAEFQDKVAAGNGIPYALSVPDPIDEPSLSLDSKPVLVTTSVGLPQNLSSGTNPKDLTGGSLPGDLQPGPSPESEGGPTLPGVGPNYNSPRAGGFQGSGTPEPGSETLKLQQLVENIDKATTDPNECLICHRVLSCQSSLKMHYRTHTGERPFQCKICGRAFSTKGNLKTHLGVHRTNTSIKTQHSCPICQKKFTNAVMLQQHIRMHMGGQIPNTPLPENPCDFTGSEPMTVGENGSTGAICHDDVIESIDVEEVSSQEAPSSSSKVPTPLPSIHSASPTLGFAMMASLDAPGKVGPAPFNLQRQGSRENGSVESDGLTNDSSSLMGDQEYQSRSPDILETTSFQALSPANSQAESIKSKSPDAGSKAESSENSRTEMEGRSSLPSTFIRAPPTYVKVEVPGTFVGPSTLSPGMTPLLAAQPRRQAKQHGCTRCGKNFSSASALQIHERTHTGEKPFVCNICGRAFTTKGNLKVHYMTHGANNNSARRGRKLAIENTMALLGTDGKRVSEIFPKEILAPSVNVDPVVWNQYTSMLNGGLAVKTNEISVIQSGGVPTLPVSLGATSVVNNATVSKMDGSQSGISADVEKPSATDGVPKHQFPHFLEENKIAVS
# T1 sequence (Q96SW2 whole entry): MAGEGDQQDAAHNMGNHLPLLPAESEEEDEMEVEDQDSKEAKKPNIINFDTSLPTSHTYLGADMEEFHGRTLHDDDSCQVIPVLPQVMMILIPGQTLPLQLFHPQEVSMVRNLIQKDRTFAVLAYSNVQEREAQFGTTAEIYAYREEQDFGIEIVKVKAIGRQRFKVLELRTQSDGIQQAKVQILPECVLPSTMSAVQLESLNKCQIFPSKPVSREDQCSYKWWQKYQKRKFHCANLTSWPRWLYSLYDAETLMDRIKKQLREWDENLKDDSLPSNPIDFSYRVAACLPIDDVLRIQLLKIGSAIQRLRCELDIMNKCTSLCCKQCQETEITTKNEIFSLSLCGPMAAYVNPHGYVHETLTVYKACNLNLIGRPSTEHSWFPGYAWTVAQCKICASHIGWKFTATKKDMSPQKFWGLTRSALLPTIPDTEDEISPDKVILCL
# T1 sequence (Q16531 whole entry partner): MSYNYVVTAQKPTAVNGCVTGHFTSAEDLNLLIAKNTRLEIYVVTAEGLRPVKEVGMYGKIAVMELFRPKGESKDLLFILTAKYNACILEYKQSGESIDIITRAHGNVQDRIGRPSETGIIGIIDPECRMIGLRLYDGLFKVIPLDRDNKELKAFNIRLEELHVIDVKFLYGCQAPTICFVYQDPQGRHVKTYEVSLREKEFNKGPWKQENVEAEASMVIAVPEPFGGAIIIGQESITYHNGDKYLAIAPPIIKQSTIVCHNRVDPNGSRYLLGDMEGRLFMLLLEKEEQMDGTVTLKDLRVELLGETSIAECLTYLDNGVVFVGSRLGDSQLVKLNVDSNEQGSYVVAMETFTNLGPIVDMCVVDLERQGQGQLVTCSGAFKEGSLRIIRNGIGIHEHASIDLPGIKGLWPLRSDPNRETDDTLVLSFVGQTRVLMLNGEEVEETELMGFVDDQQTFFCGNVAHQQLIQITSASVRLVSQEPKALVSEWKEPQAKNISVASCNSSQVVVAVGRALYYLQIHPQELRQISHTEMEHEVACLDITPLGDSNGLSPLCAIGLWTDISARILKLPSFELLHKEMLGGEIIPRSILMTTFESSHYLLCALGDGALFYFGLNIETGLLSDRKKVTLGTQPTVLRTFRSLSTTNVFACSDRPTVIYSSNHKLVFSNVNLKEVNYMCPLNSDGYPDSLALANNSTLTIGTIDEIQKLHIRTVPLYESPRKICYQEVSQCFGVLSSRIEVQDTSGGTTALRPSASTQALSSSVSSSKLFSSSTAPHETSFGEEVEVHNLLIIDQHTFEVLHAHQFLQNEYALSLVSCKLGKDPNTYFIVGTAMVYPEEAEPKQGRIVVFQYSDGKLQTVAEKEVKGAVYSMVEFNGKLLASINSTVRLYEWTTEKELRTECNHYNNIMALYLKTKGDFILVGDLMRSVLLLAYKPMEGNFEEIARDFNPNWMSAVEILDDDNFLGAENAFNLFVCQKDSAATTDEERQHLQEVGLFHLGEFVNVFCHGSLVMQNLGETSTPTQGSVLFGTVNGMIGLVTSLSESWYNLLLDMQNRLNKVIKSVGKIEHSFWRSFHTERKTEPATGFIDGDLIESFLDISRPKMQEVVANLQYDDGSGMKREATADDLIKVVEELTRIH
smiles,measurement,setting,value
"CCN1CCC[C@@H](Oc2ccc3c(c2)CN(C2CCC(=O)NC2=O)C3=O)C1 (mixture of isomers) [Example 1, 3-(5-(((R)-1-ethylpiperidin-3-yl)oxy)-1-oxoisoindolin-2-yl)piperidine-2,6-dione]",SALL4 Amax,"DMSO-normalized, curve-fitted percentage of SALL4-HiBiT remaining at 50 uM, mean over repeats",72.21%
same,DC50,"arithmatic mean over number of repeats, 18 hours, top 50 μM, read-out: SALL4 AC50",49 nM
